What was measured:
[1] = cited from earlier work
[2] = injection of supersaturated solution into 37° C. phosphate buffered saline; format: physicochemical
Protocol: A supersaturated 10 weight per volume percent felbamate solution in PEG 300 was injected into 37° C. phosphate buffered saline. […] Additional felbamate supersaturated solution at the same concentration was added 10 microliters at a time without forming solid particles up to at least 50 microliters.

[3] = SEM imaging of precipitated microparticles; format: physicochemical
Protocol: Felbamate was dissolved in dimethyl sulfoxide to create a five weight per volume percent solution. The felbamate solution was introduced into one hundred times the volume of a one weight per volume percent polysorbate 20 aqueous solution stirred at 1,500 revolutions per minute using an overhead mixer equipped with an impeller blade. The resultant microparticles of felbamate were imaged using SEM. […] Under the same experimental conditions, Span 80 was substituted for polysorbate 20.
Felbamate was dissolved in glycerin heated above 120° C. to create a 5% weight per volume solution. The felbamate solution was introduced into one hundred times the volume of a one weight per volume percent polysorbate 20 aqueous solution stirred at 1,500 revolutions per minute using an overhead mixer equipped with an impeller blade. The resultant microparticles of felbamate were imaged using SEM.

[4] = supersaturated solution: remaining in solution after heating and cooling; format: physicochemical
Protocol: Felbamate was added at a concentration of up to 20 weight per volume percent to polyethylene glycol 300 and polyethylene glycol 400. Solutions were heated above 70° C. after which the felbamate dissolved.
Felbamate was added at a concentration of up to 10 weight per volume percent in 65 volume per volume percent polyethylene glycol 300, 20 volume per volume percent polyethylene glycol 400, and 15 volume per volume percent propylene glycol. In a separate experiment, felbamate was added at a concentration of up to 10 weight per volume percent in 65 volume per volume percent polyethylene glycol 300, 20 volume per volume percent polyethylene glycol 400, 10 volume per volume percent propylene glycol, and 5 volume per volume percent polyethylene glycol 600.
Solutions were heated above 70° C. after which the felbamate dissolved.
Fluorofelbamate was added at a concentration of 10 weight per volume percent to polyethylene glycol 300. Solutions were heated above approximately 80° C. after which the fluorofelbamate dissolved.

[5] = molecular target: CYP2C19 (Homo sapiens, UniProt P33261); conditions: cited from earlier work
[6] = cited from earlier work; remark: listed apart in the source

Sequence of CYP2C19 (P33261 whole entry): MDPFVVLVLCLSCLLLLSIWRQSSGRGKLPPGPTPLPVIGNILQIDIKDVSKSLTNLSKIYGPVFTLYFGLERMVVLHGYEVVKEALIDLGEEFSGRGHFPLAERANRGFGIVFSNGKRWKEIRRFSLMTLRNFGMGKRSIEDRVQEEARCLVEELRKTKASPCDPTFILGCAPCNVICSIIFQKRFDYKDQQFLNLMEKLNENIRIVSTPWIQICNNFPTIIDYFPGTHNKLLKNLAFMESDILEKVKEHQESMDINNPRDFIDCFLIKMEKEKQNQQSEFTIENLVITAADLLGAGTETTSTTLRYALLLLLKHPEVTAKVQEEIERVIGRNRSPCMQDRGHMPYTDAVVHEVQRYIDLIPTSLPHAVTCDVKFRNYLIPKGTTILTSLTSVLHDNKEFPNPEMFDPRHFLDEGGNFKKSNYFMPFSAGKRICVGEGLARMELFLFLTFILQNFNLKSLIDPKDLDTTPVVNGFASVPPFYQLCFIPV

Structure (SMILES) | solubility in water [1] | volume of additional supersaturated solution added without forming solid particles ([2]; 10 w/v % in PEG 300, added 10 microliters at a time to 37° C. phosphate buffered saline) | solid particles on injection ([2]; supersaturated 10 w/v % solution in PEG 300 injected into 37° C. phosphate buffered saline) | particle size by SEM ([3]; glycerin / polysorbate 20 microparticles compared with native powder) | particle form ([3]; same conditions, Span 80 substituted for polysorbate 20) | solution state after heating or cooling ([4]; PEG 300 / PEG 400 sample heated or cooled to 40° C., 4° C., and −20° C. for 30 minutes, then returned to 25° C.) | concentration of samples that remained in solution ([4]; polyethylene glycol 300 and polyethylene glycol 400, heated above 70° C., cooled to room temperature approx. 25°) [weight per volume percent] | time remained in solution ([4]; up to 10 w/v % in 65 v/v % PEG 300, 20 v/v % PEG 400, 10 v/v % propylene glycol, 5 v/v % PEG 600, approx. 25° C.) | time remained in solution ([4]; up to 10 w/v % in 65 v/v % PEG 300, 20 v/v % PEG 400, 15 v/v % propylene glycol, approx. 25° C.) | time remained in solution ([4]; up to approx. 12.5 weight per volume percent in polyethylene glycol 300 and polyethylene glycol 400, room temperature approx. 25°) | effect on CYP2C19 [5] | share of aplastic anemia cases that are fatal ([6]; chronic oral dosing) [%] | aplastic anemia after a single administration ([6]; single administration) | time remained in solution ([4]; 10 w/v % in polyethylene glycol 300, heated above approx. 80° C., cooled to approx. 25°)
NC(=O)OCC(COC(N)=O)c1ccccc1 [Felbamate] | less than one | at least 50 microliters | No solid particles were observed | hundreds of microns | formed crystals, which are unsuitable for injection | remained in solution | ≤ 12.5 | at least 1 day | at least 1 day | at least eight | inhibitor | 30 | has not been shown to develop | –
NC(=O)OCC(F)(COC(N)=O)c1ccccc1 [Fluorofelbamate] | less than one | – | – | – | – | – | – | – | – | – | – | – | – | at least 1 month

Reference: patent US20140178479A1, “Concentrated Felbamate Formulations for Parenteral Administration” (PEROSPHERE, INC., priority 2011, published 2014)
